PubChem BioAssay (NCI)
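Following 48 hours of exposure in 96-well plates, responses at five concentrations were used to interpolate endpoints linearly. TGI denotes the concentration required for complete inhibition of growth.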

Tests used:
Assay in all cases: growth of human tumour cells (NCI), 48 h
786-0 renal = system: 786-0 renal
A498 renal = system: A498 renal
A549 NSCLC = system: A549 NSCLC
ACHN renal = system: ACHN renal
BT-549 breast = system: BT-549 breast
CAKI-1 renal = system: CAKI-1 renal
CCRF-CEM leukemia = system: CCRF-CEM leukemia
COLO 205 colon = system: COLO 205 colon
DU-145 prostate = system: DU-145 prostate
EKVX NSCLC = system: EKVX NSCLC
HCC-2998 colon = system: HCC-2998 colon
HCT-116 colon = system: HCT-116 colon
HCT-15 colon = system: HCT-15 colon
HL-60(TB) leukemia = system: HL-60(TB) leukemia
HOP-62 NSCLC = system: HOP-62 NSCLC
HOP-92 NSCLC = system: HOP-92 NSCLC
HS 578T breast = system: HS 578T breast
HT29 colon = system: HT29 colon
IGROV1 ovarian = system: IGROV1 ovarian
K-562 leukemia = system: K-562 leukemia
KM12 colon = system: KM12 colon
LOX IMVI melanoma = system: LOX IMVI melanoma
M14 melanoma = system: M14 melanoma
MALME-3M melanoma = system: MALME-3M melanoma
MCF7 breast = system: MCF7 breast
MDA-MB-231 breast = system: MDA-MB-231 breast
MDA-MB-435 = system: MDA-MB-435
MDA-N = system: MDA-N
MOLT-4 leukemia = system: MOLT-4 leukemia
NCI-H226 lung = system: NCI-H226 lung
NCI-H23 lung = system: NCI-H23 lung
NCI-H460 lung = system: NCI-H460 lung
NCI-H522 lung = system: NCI-H522 lung
NCI/ADR-RES ovarian = system: NCI/ADR-RES ovarian
OVCAR-4 ovarian = system: OVCAR-4 ovarian
OVCAR-5 ovarian = system: OVCAR-5 ovarian
OVCAR-8 ovarian = system: OVCAR-8 ovarian
PC-3 prostate = system: PC-3 prostate
RPMI-8226 leukemia = system: RPMI-8226 leukemia
RXF 393 renal = system: RXF 393 renal
SF-268 CNS = system: SF-268 CNS
SF-295 CNS = system: SF-295 CNS
SK-MEL-2 melanoma = system: SK-MEL-2 melanoma
SK-MEL-28 melanoma = system: SK-MEL-28 melanoma
SK-MEL-5 melanoma = system: SK-MEL-5 melanoma
SK-OV-3 ovarian = system: SK-OV-3 ovarian
SN12C renal = system: SN12C renal
SNB-19 CNS = system: SNB-19 CNS
SR leukemia = system: SR leukemia
SW-620 colon = system: SW-620 colon
T-47D breast = system: T-47D breast
TK-10 renal = system: TK-10 renal
U251 CNS = system: U251 CNS
UACC-257 melanoma = system: UACC-257 melanoma
UACC-62 melanoma = system: UACC-62 melanoma
UO-31 renal = system: UO-31 renal
OVCAR-3 ovarian = system: OVCAR-3 ovarian
SF-539 CNS = system: SF-539 CNS
SNB-75 CNS = system: SNB-75 CNS

Measured: TGI

CC1=C(C)C2(C#N)C(=O)N3C(=NC(c4ccccc4)NC3c3ccccc3)C2(C#N)C(c2ccccc2)N1 (configuration not stated)
> 100 µM: 786-0 renal | A498 renal | A549 NSCLC | ACHN renal | BT-549 breast | CAKI-1 renal | CCRF-CEM leukemia | COLO 205 colon | DU-145 prostate | EKVX NSCLC | HCC-2998 colon | HCT-116 colon | HCT-15 colon | HL-60(TB) leukemia | HOP-62 NSCLC | HOP-92 NSCLC | HS 578T breast | HT29 colon | IGROV1 ovarian | K-562 leukemia | KM12 colon | LOX IMVI melanoma | M14 melanoma | MALME-3M melanoma | MCF7 breast | MDA-MB-231 breast | MDA-MB-435 | MDA-N | MOLT-4 leukemia | NCI-H226 lung | NCI-H23 lung | NCI-H460 lung | NCI-H522 lung | NCI/ADR-RES ovarian | OVCAR-4 ovarian | OVCAR-5 ovarian | OVCAR-8 ovarian | PC-3 prostate | RPMI-8226 leukemia | RXF 393 renal | SF-268 CNS | SF-295 CNS | SK-MEL-2 melanoma | SK-MEL-28 melanoma | SK-MEL-5 melanoma | SK-OV-3 ovarian | SN12C renal | SNB-19 CNS | SR leukemia | SW-620 colon | T-47D breast | TK-10 renal | U251 CNS | UACC-257 melanoma | UACC-62 melanoma | UO-31 renal

CN(N=O)C(=O)NNC(=O)N(C)N=O
> 100 µM: A498 renal | A549 NSCLC | ACHN renal | BT-549 breast | CAKI-1 renal | CCRF-CEM leukemia | COLO 205 colon | DU-145 prostate | EKVX NSCLC | HCC-2998 colon | HCT-116 colon | HCT-15 colon | HL-60(TB) leukemia | HOP-62 NSCLC | HOP-92 NSCLC | HS 578T breast | HT29 colon | IGROV1 ovarian | K-562 leukemia | KM12 colon | LOX IMVI melanoma | M14 melanoma | MCF7 breast | MDA-MB-231 breast | MDA-MB-435 | MDA-N | MOLT-4 leukemia | NCI-H226 lung | NCI-H23 lung | NCI-H460 lung | NCI-H522 lung | NCI/ADR-RES ovarian | OVCAR-3 ovarian | OVCAR-4 ovarian | OVCAR-5 ovarian | OVCAR-8 ovarian | PC-3 prostate | RPMI-8226 leukemia | SF-268 CNS | SF-295 CNS | SF-539 CNS | SK-MEL-2 melanoma | SK-MEL-28 melanoma | SK-MEL-5 melanoma | SK-OV-3 ovarian | SN12C renal | SNB-19 CNS | SNB-75 CNS | SR leukemia | SW-620 colon | T-47D breast | TK-10 renal | U251 CNS | UACC-257 melanoma | UACC-62 melanoma | UO-31 renal
85.7 µM: RXF 393 renal
95.1 µM: 786-0 renal

CN(C)C(=O)Oc1ccc[n+](C)c1
> 100 µM: 786-0 renal | A498 renal | ACHN renal | BT-549 breast | CAKI-1 renal | COLO 205 colon | DU-145 prostate | EKVX NSCLC | HCC-2998 colon | HCT-116 colon | HCT-15 colon | HL-60(TB) leukemia | HOP-62 NSCLC | HS 578T breast | HT29 colon | IGROV1 ovarian | K-562 leukemia | KM12 colon | LOX IMVI melanoma | MALME-3M melanoma | MCF7 breast | MDA-MB-231 breast | MDA-MB-435 | MDA-N | MOLT-4 leukemia | NCI-H226 lung | NCI-H23 lung | NCI-H460 lung | NCI-H522 lung | NCI/ADR-RES ovarian | OVCAR-3 ovarian | OVCAR-4 ovarian | OVCAR-5 ovarian | OVCAR-8 ovarian | PC-3 prostate | RPMI-8226 leukemia | RXF 393 renal | SF-268 CNS | SF-295 CNS | SK-MEL-2 melanoma | SK-MEL-28 melanoma | SK-MEL-5 melanoma | SN12C renal | SNB-19 CNS | SNB-75 CNS | SR leukemia | SW-620 colon | T-47D breast | TK-10 renal | U251 CNS | UACC-257 melanoma | UACC-62 melanoma | UO-31 renal
